Experiments:
Experiment in all cases: relative viability (nuclei count vs DMSO), 5 days (fraction); higher = more cells survive
[1] = compound: Cn1cc(-c2cnn3c(N)c(Br)c([C@@H]4CCCNC4)nc23)cn1 + CC(C)C[C@H](NC(=O)[C@H](Cc1ccccc1)NC(=O)c1cnccn1)B(O)O [Bortezomib] (partner 0.002 µM)
How it was run: (§1)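 Relative viability divides the nuclei count in treated wells by that in vehicle wells. Lung cancer cell lines were seeded in 1536-well plates, dosed by pin tool the next day, and fixed and stained after 5 days in one step with final 0.05% Triton X-100, 1% formaldehyde and 1 ug/ml Hoechst. Dosing was a single drug or a fixed anchor-drug dose plus five library-drug doses (not always all listed) in √10 steps, and values are medians of duplicate plates imaged at 4×.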

[2] = compound: Cn1cc(-c2cnn3c(N)c(Br)c([C@@H]4CCCNC4)nc23)cn1 + CS(=O)(=O)CCNCc1ccc(-c2ccc3ncnc(Nc4ccc(OCc5cccc(F)c5)c(Cl)c4)c3c2)o1 [Lapatinib] (partner 2 µM)
How it was run: as §1

[3] = compound: Cn1cc(-c2cnn3c(N)c(Br)c([C@@H]4CCCNC4)nc23)cn1 + NC(=O)Nc1cc(-c2cccc(F)c2)sc1C(=O)N[C@H]1CCCNC1 [AZD7762] (partner 0.2 µM)
How it was run: as §1

[4] = compound: Cn1cc(-c2cnn3c(N)c(Br)c([C@@H]4CCCNC4)nc23)cn1 + Nc1ncn([C@H]2C[C@H](O)[C@@H](CO)O2)c(=O)n1 [Decitabine] (partner 2 µM)
How it was run: as §1

| Cell Line | relative viability ([1]; first compound 0.05 µM) | relative viability ([1]; first compound 0.1581 µM) | relative viability ([1]; first compound 0.5 µM) | relative viability ([1]; first compound 1.581 µM) | relative viability ([1]; first compound 5 µM) | relative viability ([2]; first compound 0.05 µM) | relative viability ([2]; first compound 0.1581 µM) | relative viability ([2]; first compound 0.5 µM) | relative viability ([2]; first compound 1.581 µM) | relative viability ([2]; first compound 5 µM) | relative viability ([3]; first compound 0.05 µM) | relative viability ([3]; first compound 0.1581 µM) | relative viability ([3]; first compound 0.5 µM) | relative viability ([3]; first compound 1.581 µM) | relative viability ([3]; first compound 5 µM) | relative viability ([4]; first compound 0.05 µM) | relative viability ([4]; first compound 0.1581 µM) | relative viability ([4]; first compound 0.5 µM) | relative viability ([4]; first compound 1.581 µM) | relative viability ([4]; first compound 5 µM) |
| --- | --- | --- | --- | --- | --- | --- | --- | --- | --- | --- | --- | --- | --- | --- | --- | --- | --- | --- | --- | --- |
| NCI-H23 | 1.08 | 1.28 | 1.01 | 0.473 | 0.239 | 1.08 | 1.23 | 1.02 | 0.825 | 0.267 | 0.253 | 0.273 | 0.25 | 0.162 | 0.123 | 0.295 | 0.278 | 0.362 | 0.267 | 0.269 |
| NCI-H322M | 1.2 | 1.32 | 1.22 | 1.21 | 1.26 | 0.488 | 0.585 | 0.621 | 0.493 | 0.512 | 0.51 | 0.428 | 0.501 | 0.447 | 0.407 | 0.617 | 0.706 | 0.65 | 0.635 | 0.44 |
| NCI-H460 | 0.993 | 1.74 | 0.792 | 0.401 | 0.529 | 1.12 | 1.37 | 1.15 | 0.288 | 0.591 | 0.496 | 0.579 | 0.603 | 0.757 | 0.519 | 0.523 | 0.546 | 0.31 | 0.356 | 0.19 |
| NCI-H596 | 1.06 | 0.964 | 0.9 | 0.804 | 1.02 | 1.15 | 1.09 | 1.06 | 0.972 | 1 | 1.13 | 1.06 | 1.06 | 1.01 | 1.1 | 0.973 | 0.968 | 1.03 | 0.916 | 1.12 |
| NCI-H647 | 1.15 | 1.05 | 0.648 | 0.696 | 0.38 | 1.43 | 1.22 | 1.17 | 0.497 | 0.275 | 0.497 | 0.496 | 0.349 | 0.37 | 0.238 | 0.434 | 0.522 | 0.42 | 0.409 | 0.143 |
| NCI-H650 | 0.717 | 0.748 | 0.69 | 0.773 | 0.603 | 0.802 | 0.831 | 1.03 | 0.652 | 0.503 | 0.954 | 0.923 | 1.1 | 1.04 | 0.928 | 0.317 | 0.341 | 0.34 | 0.39 | 0.434 |
| NCI-H727 | 0.818 | 0.887 | 0.901 | 0.623 | 0.412 | 0.867 | 1.05 | 0.813 | 0.88 | 0.426 | 0.591 | 0.52 | 0.512 | 0.536 | 0.472 | 0.919 | 0.858 | 0.923 | 0.696 | 0.705 |
| NCI-H838 | 0.918 | 0.845 | 0.83 | 0.701 | 0.551 | 0.955 | 1.15 | 0.964 | 0.667 | 0.775 | 0.991 | 0.92 | 1 | 0.879 | 0.84 | 0.483 | 0.574 | 0.545 | 0.51 | 0.309 |

— the supplement of paper PMC10307832
